Among the data in patent US20230160018A1, “CRYBETAB2 PREDICTS POOR BREAST CANCER OUTCOME AND SENSITIZES TUMORS TO NUCLEOLIN AND CDK INHIBITION” (The Johns Hopkins University, priority 2020, published 2023) are tumor size values, retold here.

The subject of this assay is MCF10AT1-vector tumors. Description: MCF10AT1-vector (CRYβB2-lacking) xenograft tumor growth in NSG mice. In kind it is in vivo. Conditions: palbociclib 50 mg/kg oral, 5 days/week, 2 weeks; tumors lack CRYβB2 expression.

Molecules are shown by their SMILES.

For the molecule `CC(=O)c1c(C)c2cnc(Nc3ccc(N4CCNCC4)cn3)nc2n(C2CCCC2)c1=O` [palbociclib], the tumor size entry is on record as “no effect”.
